Test results: the supplement of paper PMC13207355
± gives the standard deviation of the averaged measurements.

Experiments:
Conditions in all cases: exposure time: 72 h
E13 [1] = patient-derived glioblastoma stem cells of classical subtype; assay: surviving fraction (nuclei count normalised to DMSO); higher = more cells surviving (less toxic)
E21 [2] = patient-derived glioblastoma stem cells of mesenchymal subtype; assay: as above
E28 [3] = patient-derived glioblastoma stem cells of classical subtype; assay: as above
E31 [4] = patient-derived glioblastoma stem cells of proneural subtype; assay: as above
E34 [5] = patient-derived glioblastoma stem cells of proneural subtype; assay: as above
E57 [6] = patient-derived glioblastoma stem cells of mesenchymal subtype; assay: as above
FT3469 [7] = normal neural stem cell line; assay: as above
E13 [8] = assay: phenotypic distance (Euclidean, principal components) from DMSO controls (arbitrary units); higher = stronger morphological change
E21 [9] = assay: as above
E28 [10] = assay: as above
E31 [11] = assay: as above
E34 [12] = assay: as above
E57 [13] = assay: as above
FT3469 [14] = assay: as above
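For phenotypic distance (Euclidean, principal components) from DMSO controls in this document: cell Painting imaging in 384-well plates, CellProfiler features reduced to at least 20 principal components, Euclidean distance versus same-plate DMSO vehicle wells (0.1% v/v), median over six images per well.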
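For surviving fraction (nuclei count normalised to DMSO) in this document: nuclei counted by high-content imaging of Hoechst-stained cells in laminin-coated 384-well plates, relative to 0.1% DMSO vehicle wells, with staurosporine as cell-death control.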

Cc1[nH]nc(C(F)(F)F)c1Cc1sc2c(c1C(=O)N1C[C@](C)(O)CO1)c(=O)n(C)c(=O)n2C(C)C [AZD3965]
Conditions	phenotypic distance	surviving fraction
E13 [1], 4.1 nM	–	0.892
E13 [1], 4.11523 nM	–	0.874
E13 [1], 12.3 nM	–	0.878
E13 [1], 12.34567901 nM	–	0.853
E13 [1], 37 nM	–	0.902
E13 [1], 37.037 nM	–	0.888
E13 [1], 111.1 nM	–	0.875
E13 [1], 111.1111111 nM	–	0.852
E13 [1], 333.3 nM	–	0.798
E13 [1], 333.333 nM	–	0.795
E13 [1], 1000 nM	–	0.8872 ± 0.0032
E13 [1], 3000 nM	–	0.893 ± 0.14
E13 [8], 4.1 nM	2.38	–
E13 [8], 4.11523 nM	3.36	–
E13 [8], 12.3 nM	1.38	–
E13 [8], 12.34567901 nM	1.25	–
E13 [8], 37 nM	1.12	–
E13 [8], 37.037 nM	1.28	–
E13 [8], 111.1 nM	1.14	–
E13 [8], 111.1111111 nM	1.42	–
E13 [8], 333.3 nM	1.61	–
E13 [8], 333.333 nM	1.44	–
E13 [8], 1000 nM	1.42 ± 0.29	–
E13 [8], 3000 nM	1.49 ± 0.26	–
E21 [2], 4.1 nM	–	0.918
E21 [2], 4.11523 nM	–	0.909
E21 [2], 12.3 nM	–	0.974
E21 [2], 12.34567901 nM	–	0.942
E21 [2], 37 nM	–	1.01
E21 [2], 37.037 nM	–	0.985
E21 [2], 111.1 nM	–	0.876
E21 [2], 111.1111111 nM	–	0.994
E21 [2], 333.3 nM	–	0.97
E21 [2], 333.333 nM	–	0.874
E21 [2], 1000 nM	–	0.975 ± 0.013
E21 [2], 3000 nM	–	1.03 ± 0.048
E21 [9], 4.1 nM	0.524	–
E21 [9], 4.11523 nM	0.56	–
E21 [9], 12.3 nM	0.38	–
E21 [9], 12.34567901 nM	0.473	–
E21 [9], 37 nM	0.579	–
E21 [9], 37.037 nM	0.608	–
E21 [9], 111.1 nM	3	–
E21 [9], 111.1111111 nM	0.601	–
E21 [9], 333.3 nM	0.814	–
E21 [9], 333.333 nM	0.596	–
E21 [9], 1000 nM	0.438 ± 0.024	–
E21 [9], 3000 nM	0.509 ± 0.17	–
E28 [3], 4.1 nM	–	0.719
E28 [3], 4.11523 nM	–	0.606
E28 [3], 12.3 nM	–	0.623
E28 [3], 12.34567901 nM	–	0.725
E28 [3], 37 nM	–	0.66
E28 [3], 37.037 nM	–	0.664
E28 [3], 111.1 nM	–	0.585
E28 [3], 111.1111111 nM	–	0.599
E28 [3], 333.3 nM	–	0.695
E28 [3], 333.333 nM	–	0.602
E28 [3], 1000 nM	–	0.645 ± 0.073
E28 [3], 3000 nM	–	0.609 ± 0.0062
E28 [10], 4.1 nM	1.93	–
E28 [10], 4.11523 nM	2.44	–
E28 [10], 12.3 nM	2.03	–
E28 [10], 12.34567901 nM	2.3	–
E28 [10], 37 nM	2.12	–
E28 [10], 37.037 nM	2.05	–
E28 [10], 111.1 nM	2.52	–
E28 [10], 111.1111111 nM	2.75	–
E28 [10], 333.3 nM	2.16	–
E28 [10], 333.333 nM	1.86	–
E28 [10], 1000 nM	3.17 ± 1.1	–
E28 [10], 3000 nM	2.52 ± 0.15	–
E31 [4], 4.1 nM	–	1.02
E31 [4], 4.11523 nM	–	0.885
E31 [4], 12.3 nM	–	1.01
E31 [4], 12.34567901 nM	–	1.03
E31 [4], 37 nM	–	1.11
E31 [4], 37.037 nM	–	0.935
E31 [4], 111.1 nM	–	1.02
E31 [4], 111.1111111 nM	–	1.26
E31 [4], 333.3 nM	–	1.08
E31 [4], 333.333 nM	–	0.948
E31 [4], 1000 nM	–	1.06 ± 0.084
E31 [4], 3000 nM	–	0.9527 ± 0.0084
E31 [11], 4.1 nM	1.24	–
E31 [11], 4.11523 nM	1.57	–
E31 [11], 12.3 nM	1.17	–
E31 [11], 12.34567901 nM	1.51	–
E31 [11], 37 nM	1.23	–
E31 [11], 37.037 nM	1.3	–
E31 [11], 111.1 nM	1.12	–
E31 [11], 111.1111111 nM	1.4	–
E31 [11], 333.3 nM	1.58	–
E31 [11], 333.333 nM	1.36	–
E31 [11], 1000 nM	1.41 ± 0.15	–
E31 [11], 3000 nM	1.36 ± 0.5	–
E34 [5], 4.1 nM	–	0.782
E34 [5], 4.11523 nM	–	0.704
E34 [5], 12.3 nM	–	0.677
E34 [5], 12.34567901 nM	–	0.748
E34 [5], 37 nM	–	0.775
E34 [5], 37.037 nM	–	0.724
E34 [5], 111.1 nM	–	0.71
E34 [5], 111.1111111 nM	–	0.849
E34 [5], 333.3 nM	–	0.713
E34 [5], 333.333 nM	–	0.686
E34 [5], 1000 nM	–	0.7 ± 0.031
E34 [5], 3000 nM	–	0.718 ± 0.11
E34 [12], 4.1 nM	1.15	–
E34 [12], 4.11523 nM	1.69	–
E34 [12], 12.3 nM	1.33	–
E34 [12], 12.34567901 nM	1.5	–
E34 [12], 37 nM	1.42	–
E34 [12], 37.037 nM	1.59	–
E34 [12], 111.1 nM	1.57	–
E34 [12], 111.1111111 nM	1.79	–
E34 [12], 333.3 nM	1.47	–
E34 [12], 333.333 nM	1.47	–
E34 [12], 1000 nM	1.21 ± 0.17	–
E34 [12], 3000 nM	1.35 ± 0.28	–
E57 [6], 4.1 nM	–	0.905
E57 [6], 4.11523 nM	–	0.97
E57 [6], 12.3 nM	–	0.959
E57 [6], 12.34567901 nM	–	0.899
E57 [6], 37 nM	–	0.94
E57 [6], 37.037 nM	–	0.871
E57 [6], 111.1 nM	–	0.932
E57 [6], 111.1111111 nM	–	0.96
E57 [6], 333.3 nM	–	0.917
E57 [6], 333.333 nM	–	0.898
E57 [6], 1000 nM	–	0.922 ± 0.052
E57 [6], 3000 nM	–	0.917 ± 0.078
E57 [13], 4.1 nM	1.39	–
E57 [13], 4.11523 nM	1.81	–
E57 [13], 12.3 nM	1.46	–
E57 [13], 12.34567901 nM	1.78	–
E57 [13], 37 nM	1.94	–
E57 [13], 37.037 nM	2.19	–
E57 [13], 111.1 nM	1.74	–
E57 [13], 111.1111111 nM	1.87	–
E57 [13], 333.3 nM	1.65	–
E57 [13], 333.333 nM	1.79	–
E57 [13], 1000 nM	1.74 ± 0.13	–
E57 [13], 3000 nM	1.93 ± 0.47	–
FT3469 [7], 4.1 nM	–	0.911
FT3469 [7], 4.11523 nM	–	0.788
FT3469 [7], 12.3 nM	–	0.929
FT3469 [7], 12.34567901 nM	–	0.932
FT3469 [7], 37 nM	–	0.838
FT3469 [7], 37.037 nM	–	0.903
FT3469 [7], 111.1 nM	–	0.873
FT3469 [7], 111.1111111 nM	–	1.07
FT3469 [7], 333.3 nM	–	1.05
FT3469 [7], 333.333 nM	–	0.841
FT3469 [7], 1000 nM	–	0.948 ± 0.055
FT3469 [7], 3000 nM	–	0.899 ± 0.045
FT3469 [14], 4.1 nM	2.64	–
FT3469 [14], 4.11523 nM	1.35	–
FT3469 [14], 12.3 nM	0.859	–
FT3469 [14], 12.34567901 nM	1.19	–
FT3469 [14], 37 nM	0.806	–
FT3469 [14], 37.037 nM	1.13	–
FT3469 [14], 111.1 nM	0.75	–
FT3469 [14], 111.1111111 nM	1.11	–
FT3469 [14], 333.3 nM	1.33	–
FT3469 [14], 333.333 nM	1.16	–
FT3469 [14], 1000 nM	0.712 ± 0.19	–
FT3469 [14], 3000 nM	0.976 ± 0.23	–
